Tests used:
[1] = biological target: Serine/threonine-protein kinase SIK3 (Homo sapiens) (UniProt Q9Y2K2); details: Compound concentration 1000.0 nM
[2] = biological target: Bone morphogenetic protein receptor type-2 (Homo sapiens) (UniProt Q13873); details: Compound concentration 1000.0 nM
[3] = biological target: Tyrosine-protein kinase Tec (Homo sapiens) (UniProt P42680); details: Compound concentration 1000.0 nM
[4] = biological target: STE20/SPS1-related proline-alanine-rich protein kinase (Homo sapiens) (UniProt Q9UEW8); details: Compound concentration 1000.0 nM
[5] = biological target: Serine/threonine-protein kinase Nek3 (Homo sapiens) (UniProt P51956); details: Compound concentration 1000.0 nM
[6] = biological target: Serine/threonine-protein kinase PLK3 (Homo sapiens) (UniProt Q9H4B4); details: Compound concentration 1000.0 nM
[7] = biological target: Cyclin-dependent kinase 17 (Homo sapiens) (UniProt Q00537); details: Compound concentration 1000.0 nM
Sequence of Cyclin-dependent kinase 17 (Homo sapiens) (Q00537 whole entry, looked up): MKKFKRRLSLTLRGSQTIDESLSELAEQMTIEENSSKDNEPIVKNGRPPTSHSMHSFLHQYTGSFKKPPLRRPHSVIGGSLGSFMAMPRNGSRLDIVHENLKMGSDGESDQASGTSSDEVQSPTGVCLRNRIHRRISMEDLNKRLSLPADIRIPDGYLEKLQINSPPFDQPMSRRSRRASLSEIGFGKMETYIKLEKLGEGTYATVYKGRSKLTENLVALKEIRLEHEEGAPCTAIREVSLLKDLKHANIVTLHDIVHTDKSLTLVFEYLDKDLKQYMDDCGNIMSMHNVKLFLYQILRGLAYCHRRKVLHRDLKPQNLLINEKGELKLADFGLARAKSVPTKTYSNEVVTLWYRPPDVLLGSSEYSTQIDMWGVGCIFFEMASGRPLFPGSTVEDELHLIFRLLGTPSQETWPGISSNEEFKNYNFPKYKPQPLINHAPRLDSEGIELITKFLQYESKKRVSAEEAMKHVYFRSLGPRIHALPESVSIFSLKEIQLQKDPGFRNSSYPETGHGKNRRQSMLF

[8] = biological target: Ribosomal protein S6 kinase alpha-5 (Homo sapiens) (UniProt O75582); details: Compound concentration 1000.0 nM
[9] = biological target: Angiopoietin-1 receptor (Homo sapiens) (UniProt Q02763); details: Compound concentration 1000.0 nM
Sequence of Angiopoietin-1 receptor (Homo sapiens) (Q02763 whole entry): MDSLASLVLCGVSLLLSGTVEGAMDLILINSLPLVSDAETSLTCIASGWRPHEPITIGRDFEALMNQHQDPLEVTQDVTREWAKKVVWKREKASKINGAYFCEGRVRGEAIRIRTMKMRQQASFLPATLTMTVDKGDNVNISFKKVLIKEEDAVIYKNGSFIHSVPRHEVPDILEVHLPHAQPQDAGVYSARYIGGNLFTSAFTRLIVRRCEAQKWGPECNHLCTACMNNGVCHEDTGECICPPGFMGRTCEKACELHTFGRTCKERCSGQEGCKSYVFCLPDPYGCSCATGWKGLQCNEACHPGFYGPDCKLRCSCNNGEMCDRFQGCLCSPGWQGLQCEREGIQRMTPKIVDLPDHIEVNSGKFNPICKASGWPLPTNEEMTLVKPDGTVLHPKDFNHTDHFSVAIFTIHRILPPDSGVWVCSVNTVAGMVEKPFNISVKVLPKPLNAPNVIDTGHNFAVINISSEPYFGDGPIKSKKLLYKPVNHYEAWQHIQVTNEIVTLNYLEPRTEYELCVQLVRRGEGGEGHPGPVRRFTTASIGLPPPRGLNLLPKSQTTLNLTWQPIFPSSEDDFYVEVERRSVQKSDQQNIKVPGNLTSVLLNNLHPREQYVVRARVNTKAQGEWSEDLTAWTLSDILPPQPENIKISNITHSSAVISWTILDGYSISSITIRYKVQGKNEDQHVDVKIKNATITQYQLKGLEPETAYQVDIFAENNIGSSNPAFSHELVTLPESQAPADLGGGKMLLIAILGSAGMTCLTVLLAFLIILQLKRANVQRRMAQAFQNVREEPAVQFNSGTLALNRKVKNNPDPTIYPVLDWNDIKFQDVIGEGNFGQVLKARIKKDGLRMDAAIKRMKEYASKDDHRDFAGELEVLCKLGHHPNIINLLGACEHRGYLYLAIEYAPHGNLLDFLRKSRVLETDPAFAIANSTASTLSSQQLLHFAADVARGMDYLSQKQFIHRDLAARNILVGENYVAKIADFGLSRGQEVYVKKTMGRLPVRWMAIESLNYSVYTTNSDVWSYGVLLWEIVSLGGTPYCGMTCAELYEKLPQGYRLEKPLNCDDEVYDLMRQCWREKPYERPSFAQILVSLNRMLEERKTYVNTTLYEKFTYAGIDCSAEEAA

[10] = biological target: Cyclin-dependent kinase 5 (Homo sapiens) (UniProt Q00535); details: Compound concentration 1000.0 nM
[11] = biological target: Macrophage colony-stimulating factor 1 receptor (Homo sapiens) (UniProt P07333); details: Compound concentration 1000.0 nM
[12] = system: Epidermal growth factor receptor (Homo sapiens), P00533 [L858R,T790M]; details: Compound concentration 1000.0 nM
[13] = biological target: Wee1-like protein kinase 2 (Homo sapiens) (UniProt P0C1S8); details: Compound concentration 1000.0 nM
[14] = biological target: Serine/threonine-protein kinase D1 (Homo sapiens) (UniProt Q15139); details: Compound concentration 1000.0 nM
[15] = system: Mast/stem cell growth factor receptor Kit (Homo sapiens), P10721 [V559D,T670I]; details: Compound concentration 1000.0 nM
[16] = biological target: Serine/threonine-protein kinase SIK2 (Homo sapiens) (UniProt Q9H0K1); details: Compound concentration 1000.0 nM
[17] = biological target: Mitogen-activated protein kinase kinase kinase kinase 5 (Homo sapiens) (UniProt Q9Y4K4); details: Compound concentration 1000.0 nM
[18] = biological target: Casein kinase I isoform gamma-1 (Homo sapiens) (UniProt Q9HCP0); details: Compound concentration 1000.0 nM
[19] = biological target: Phosphatidylinositol 4-phosphate 5-kinase type-1 gamma (Homo sapiens) (UniProt O60331); details: Compound concentration 1000.0 nM
[20] = biological target: Inhibitor of nuclear factor kappa-B kinase subunit alpha (Homo sapiens) (UniProt O15111); details: Compound concentration 1000.0 nM
Sequence of Inhibitor of nuclear factor kappa-B kinase subunit alpha (Homo sapiens) (O15111 whole entry): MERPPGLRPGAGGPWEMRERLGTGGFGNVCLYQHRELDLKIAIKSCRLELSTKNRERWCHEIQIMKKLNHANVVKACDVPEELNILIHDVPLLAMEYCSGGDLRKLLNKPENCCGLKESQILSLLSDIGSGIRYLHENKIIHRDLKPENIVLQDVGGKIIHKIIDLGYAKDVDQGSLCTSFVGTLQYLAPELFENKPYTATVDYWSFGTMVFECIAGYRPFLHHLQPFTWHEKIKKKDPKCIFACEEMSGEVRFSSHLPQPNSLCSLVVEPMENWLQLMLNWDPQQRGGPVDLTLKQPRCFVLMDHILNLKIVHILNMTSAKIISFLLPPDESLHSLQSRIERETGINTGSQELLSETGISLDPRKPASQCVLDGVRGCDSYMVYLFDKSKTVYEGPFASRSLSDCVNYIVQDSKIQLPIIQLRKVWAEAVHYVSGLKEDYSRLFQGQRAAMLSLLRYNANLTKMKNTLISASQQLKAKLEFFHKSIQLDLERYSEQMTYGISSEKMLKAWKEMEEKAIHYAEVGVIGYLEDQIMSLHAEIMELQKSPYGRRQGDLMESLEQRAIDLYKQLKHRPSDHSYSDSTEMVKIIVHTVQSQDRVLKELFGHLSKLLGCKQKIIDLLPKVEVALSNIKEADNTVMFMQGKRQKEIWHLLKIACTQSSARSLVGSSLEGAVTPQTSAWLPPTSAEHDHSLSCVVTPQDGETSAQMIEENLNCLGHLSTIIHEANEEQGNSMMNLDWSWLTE

[21] = biological target: Uncharacterized serine/threonine-protein kinase SBK3 (Homo sapiens) (UniProt P0C264); details: Compound concentration 1000.0 nM
[22] = system: Phosphatidylinositol 4,5-bisphosphate 3-kinase catalytic subunit alpha isoform (Homo sapiens), P42336 [E542K]; details: Compound concentration 1000.0 nM
[23] = biological target: Serine/threonine-protein kinase Nek4 (Homo sapiens) (UniProt P51957); details: Compound concentration 1000.0 nM
[24] = biological target: Vascular endothelial growth factor receptor 3 (Homo sapiens) (UniProt P35916); details: Compound concentration 1000.0 nM
[25] = system: Epidermal growth factor receptor (Homo sapiens), P00533 [T790M]; details: Compound concentration 1000.0 nM
[26] = biological target: SRSF protein kinase 3 (Homo sapiens) (UniProt Q9UPE1); details: Compound concentration 1000.0 nM
[27] = biological target: Calcium/calmodulin-dependent protein kinase type II subunit beta (Homo sapiens) (UniProt Q13554); details: Compound concentration 1000.0 nM
[28] = biological target: Proto-oncogene tyrosine-protein kinase Src (Homo sapiens) (UniProt P12931); details: Compound concentration 1000.0 nM
[29] = biological target: Serine/threonine-protein kinase RIO3 (Homo sapiens) (UniProt O14730); details: Compound concentration 1000.0 nM
[30] = biological target: Serine/threonine-protein kinase 32A (Homo sapiens) (UniProt Q8WU08); details: Compound concentration 1000.0 nM
Sequence of Serine/threonine-protein kinase 32A (Homo sapiens) (Q8WU08 whole entry): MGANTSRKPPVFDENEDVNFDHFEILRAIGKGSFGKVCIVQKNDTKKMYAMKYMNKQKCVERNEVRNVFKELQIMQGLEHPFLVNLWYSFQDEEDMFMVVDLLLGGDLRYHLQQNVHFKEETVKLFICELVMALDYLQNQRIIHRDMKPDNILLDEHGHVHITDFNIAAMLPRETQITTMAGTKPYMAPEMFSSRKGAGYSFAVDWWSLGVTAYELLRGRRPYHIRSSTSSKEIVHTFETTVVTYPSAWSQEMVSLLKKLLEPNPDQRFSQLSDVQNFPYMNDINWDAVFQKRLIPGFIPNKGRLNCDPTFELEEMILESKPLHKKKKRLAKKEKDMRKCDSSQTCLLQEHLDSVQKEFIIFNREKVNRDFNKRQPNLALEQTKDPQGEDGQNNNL

[31] = biological target: Fibroblast growth factor receptor 2 (Homo sapiens) (UniProt P21802); details: Compound concentration 1000.0 nM
[32] = biological target: Mitogen-activated protein kinase kinase kinase 10 (Homo sapiens) (UniProt Q02779); details: Compound concentration 1000.0 nM
[33] = biological target: cGMP-dependent protein kinase 1 (Homo sapiens) (UniProt Q13976); details: Compound concentration 1000.0 nM
[34] = biological target: Ephrin type-A receptor 5 (Homo sapiens) (UniProt P54756); details: Compound concentration 1000.0 nM
[35] = biological target: Calcium/calmodulin-dependent protein kinase type II subunit alpha (Homo sapiens) (UniProt Q9UQM7); details: Compound concentration 1000.0 nM
[36] = biological target: RAC-gamma serine/threonine-protein kinase (Homo sapiens) (UniProt Q9Y243); details: Compound concentration 1000.0 nM
[37] = biological target: Serine/threonine-protein kinase PLK4 (Homo sapiens) (UniProt O00444); details: Compound concentration 1000.0 nM
Sequence of Serine/threonine-protein kinase PLK4 (Homo sapiens) (O00444 whole entry): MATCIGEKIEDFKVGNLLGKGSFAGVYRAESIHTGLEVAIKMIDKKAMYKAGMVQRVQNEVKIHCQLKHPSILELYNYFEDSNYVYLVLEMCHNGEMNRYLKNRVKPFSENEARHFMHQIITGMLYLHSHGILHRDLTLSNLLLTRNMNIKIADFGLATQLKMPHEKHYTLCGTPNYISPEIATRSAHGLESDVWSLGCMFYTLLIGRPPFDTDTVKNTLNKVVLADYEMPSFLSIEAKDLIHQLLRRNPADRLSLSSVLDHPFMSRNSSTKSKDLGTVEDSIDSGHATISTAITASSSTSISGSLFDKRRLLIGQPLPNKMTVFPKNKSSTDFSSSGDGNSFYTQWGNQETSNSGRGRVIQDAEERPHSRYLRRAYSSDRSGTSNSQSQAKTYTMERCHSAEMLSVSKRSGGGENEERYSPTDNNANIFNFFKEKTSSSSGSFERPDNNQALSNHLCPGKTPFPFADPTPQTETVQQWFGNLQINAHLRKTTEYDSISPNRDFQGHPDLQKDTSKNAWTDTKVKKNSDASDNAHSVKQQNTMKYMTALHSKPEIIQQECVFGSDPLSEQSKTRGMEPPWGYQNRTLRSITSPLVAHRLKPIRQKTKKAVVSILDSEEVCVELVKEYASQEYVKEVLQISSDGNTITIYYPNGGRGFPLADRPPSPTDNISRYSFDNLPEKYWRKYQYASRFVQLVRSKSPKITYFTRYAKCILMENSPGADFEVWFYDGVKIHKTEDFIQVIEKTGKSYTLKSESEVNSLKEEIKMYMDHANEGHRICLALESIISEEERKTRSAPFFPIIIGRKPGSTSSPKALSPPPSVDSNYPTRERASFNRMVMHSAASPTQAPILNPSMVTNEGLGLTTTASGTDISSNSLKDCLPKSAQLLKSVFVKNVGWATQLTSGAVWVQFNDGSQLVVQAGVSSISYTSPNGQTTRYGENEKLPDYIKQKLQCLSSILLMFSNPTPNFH

[38] = biological target: Tyrosine-protein kinase Fgr (Homo sapiens) (UniProt P09769); details: Compound concentration 1000.0 nM
[39] = biological target: Ephrin type-B receptor 1 (Homo sapiens) (UniProt P54762); details: Compound concentration 1000.0 nM
[40] = biological target: Interleukin-1 receptor-associated kinase 1 (Homo sapiens) (UniProt P51617); details: Compound concentration 1000.0 nM
[41] = biological target: Sigma non-opioid intracellular receptor 1 (Homo sapiens, UniProt Q99720); experiment: GPCRScan assay: inhibition of Sigma 1; design: radioligand conc. used [nm] 4.0 – 5.0, parental cells HEKT
[42] = biological target: Rhodopsin kinase GRK7 (Homo sapiens) (UniProt Q8WTQ7); details: Compound concentration 1000.0 nM
[43] = system: Tyrosine-protein kinase ABL1 (Homo sapiens), P00519 [Y253F]; details: Compound concentration 1000.0 nM
[44] = biological target: Vascular endothelial growth factor receptor 2 (Homo sapiens) (UniProt P35968); details: Compound concentration 1000.0 nM

Sequence of Serine/threonine-protein kinase SIK3 (Homo sapiens) (Q9Y2K2 whole entry, looked up): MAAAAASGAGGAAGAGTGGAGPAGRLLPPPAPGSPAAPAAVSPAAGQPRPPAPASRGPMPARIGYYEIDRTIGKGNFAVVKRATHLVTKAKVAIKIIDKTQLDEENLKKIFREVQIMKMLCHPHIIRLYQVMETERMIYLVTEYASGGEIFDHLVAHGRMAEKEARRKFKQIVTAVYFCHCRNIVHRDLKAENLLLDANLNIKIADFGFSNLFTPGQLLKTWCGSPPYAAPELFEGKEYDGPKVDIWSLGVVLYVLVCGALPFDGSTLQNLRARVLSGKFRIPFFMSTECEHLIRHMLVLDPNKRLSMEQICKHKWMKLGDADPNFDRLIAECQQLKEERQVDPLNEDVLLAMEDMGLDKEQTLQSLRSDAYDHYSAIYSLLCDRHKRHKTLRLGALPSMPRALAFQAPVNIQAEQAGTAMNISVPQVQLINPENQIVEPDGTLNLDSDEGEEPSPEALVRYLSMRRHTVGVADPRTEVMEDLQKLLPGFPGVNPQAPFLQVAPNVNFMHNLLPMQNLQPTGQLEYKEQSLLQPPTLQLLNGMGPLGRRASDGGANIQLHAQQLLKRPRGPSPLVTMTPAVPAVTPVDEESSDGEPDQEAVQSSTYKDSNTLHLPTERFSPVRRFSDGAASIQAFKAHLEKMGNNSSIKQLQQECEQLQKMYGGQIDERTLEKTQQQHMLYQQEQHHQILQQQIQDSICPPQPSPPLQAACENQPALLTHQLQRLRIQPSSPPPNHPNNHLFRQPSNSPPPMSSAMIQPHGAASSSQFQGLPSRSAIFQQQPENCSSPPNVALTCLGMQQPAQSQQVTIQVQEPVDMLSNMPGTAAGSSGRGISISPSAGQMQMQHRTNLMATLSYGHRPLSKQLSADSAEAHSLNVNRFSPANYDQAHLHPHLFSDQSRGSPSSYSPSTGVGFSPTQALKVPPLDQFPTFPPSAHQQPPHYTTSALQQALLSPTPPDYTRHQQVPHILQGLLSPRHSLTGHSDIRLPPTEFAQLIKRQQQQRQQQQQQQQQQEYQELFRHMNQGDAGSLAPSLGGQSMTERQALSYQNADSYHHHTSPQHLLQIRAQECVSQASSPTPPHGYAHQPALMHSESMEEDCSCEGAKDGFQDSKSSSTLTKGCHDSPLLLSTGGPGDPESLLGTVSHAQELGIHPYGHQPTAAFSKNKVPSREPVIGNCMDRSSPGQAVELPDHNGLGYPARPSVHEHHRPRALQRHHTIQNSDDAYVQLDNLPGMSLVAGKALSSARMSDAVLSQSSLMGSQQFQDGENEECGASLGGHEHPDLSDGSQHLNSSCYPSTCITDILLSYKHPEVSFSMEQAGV

CN(C)CC#Cc1ccc(OCCCc2sc(N3CCc4cccc(C(=O)Nc5nc6ccccc6s5)c4C3)nc2C(=O)O)c(F)c1 [A-1155463]
residual activity [1]: 77%
residual activity [2]: 100%
residual activity [3]: 97%
residual activity [4]: 100%
residual activity [5]: 100%
residual activity [6]: 92%
residual activity [7]: 99%
residual activity [8]: 90%
residual activity [9]: 100%
residual activity [10]: 100%
residual activity [11]: 87%
residual activity [12]: 100%
residual activity [13]: 100%
residual activity [14]: 100%
residual activity [15]: 95%
residual activity [16]: 96%
residual activity [17]: 91%
residual activity [18]: 91%
residual activity [19]: 100%
residual activity [20]: 81%
residual activity [21]: 100%
residual activity [22]: 72%
residual activity [23]: 98%
residual activity [24]: 100%
residual activity [25]: 100%
residual activity [26]: 100%
residual activity [27]: 79%
residual activity [28]: 100%
residual activity [29]: 86%
residual activity [30]: 100%
residual activity [31]: 98%
residual activity [32]: 100%
residual activity [33]: 100%
residual activity [34]: 98%
residual activity [35]: 64%
residual activity [36]: 100%
residual activity [37]: 77%
residual activity [38]: 100%
residual activity [39]: 100%
residual activity [40]: 100%
Ki [41]: 136 nM
residual activity [42]: 97%
residual activity [43]: 93%
residual activity [44]: 100%
